Test results from patent US20240197871A1, “COMBINATION OF A CAR T CELL THERAPY AND AN IMMUNOMODULATORY COMPOUND FOR TREATMENT OF LYMPHOMA” (Juno Therapeutics, Inc., priority 2021, published 2024).

Key:
[1] = target: T1, Aiolos (Homo sapiens, UniProt Q96SW2+Q9UKT9); assay: Aiolos degradation in stimulated anti-CD19 CAR T cells (flow cytometry MFI); type: cell-based
T1 construct: analyzed by flow cytometry to assess intracellular levels of Ikaros and Aiolos in CAR+ T cells; endogenous in cells; host or cells: primary human CD4+ and CD8+ T cells from healthy donors, lentivirally transduced with an anti-CD19 CAR
T1 sequence (Q9UKT9 whole entry): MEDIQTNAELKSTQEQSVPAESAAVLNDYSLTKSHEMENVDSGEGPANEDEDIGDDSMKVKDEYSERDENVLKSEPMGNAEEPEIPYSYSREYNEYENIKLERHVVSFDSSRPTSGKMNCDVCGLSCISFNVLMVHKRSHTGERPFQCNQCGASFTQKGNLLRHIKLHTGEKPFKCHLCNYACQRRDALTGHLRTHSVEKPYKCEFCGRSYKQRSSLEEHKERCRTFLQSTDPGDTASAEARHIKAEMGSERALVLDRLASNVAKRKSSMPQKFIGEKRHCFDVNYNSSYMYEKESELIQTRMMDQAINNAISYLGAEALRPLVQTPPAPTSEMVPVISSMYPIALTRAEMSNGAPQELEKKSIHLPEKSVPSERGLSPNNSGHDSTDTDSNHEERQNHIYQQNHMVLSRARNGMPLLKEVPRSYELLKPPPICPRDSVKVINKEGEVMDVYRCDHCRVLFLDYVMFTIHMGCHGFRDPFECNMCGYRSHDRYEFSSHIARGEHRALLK
T1 sequence (Q96SW2 whole entry): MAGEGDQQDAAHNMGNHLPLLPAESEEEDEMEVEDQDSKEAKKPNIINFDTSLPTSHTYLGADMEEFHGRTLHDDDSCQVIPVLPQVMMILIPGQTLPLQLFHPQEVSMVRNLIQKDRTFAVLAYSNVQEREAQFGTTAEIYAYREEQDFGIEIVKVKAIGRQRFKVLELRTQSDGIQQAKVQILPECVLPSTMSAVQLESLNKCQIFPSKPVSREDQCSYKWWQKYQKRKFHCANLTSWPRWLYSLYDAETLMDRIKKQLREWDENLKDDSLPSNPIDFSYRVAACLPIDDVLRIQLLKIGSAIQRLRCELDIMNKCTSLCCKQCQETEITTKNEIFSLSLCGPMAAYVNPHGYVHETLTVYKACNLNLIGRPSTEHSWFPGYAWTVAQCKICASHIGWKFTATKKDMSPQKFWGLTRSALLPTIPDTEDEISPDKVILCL
T1 sequence (Q16531 whole entry partner): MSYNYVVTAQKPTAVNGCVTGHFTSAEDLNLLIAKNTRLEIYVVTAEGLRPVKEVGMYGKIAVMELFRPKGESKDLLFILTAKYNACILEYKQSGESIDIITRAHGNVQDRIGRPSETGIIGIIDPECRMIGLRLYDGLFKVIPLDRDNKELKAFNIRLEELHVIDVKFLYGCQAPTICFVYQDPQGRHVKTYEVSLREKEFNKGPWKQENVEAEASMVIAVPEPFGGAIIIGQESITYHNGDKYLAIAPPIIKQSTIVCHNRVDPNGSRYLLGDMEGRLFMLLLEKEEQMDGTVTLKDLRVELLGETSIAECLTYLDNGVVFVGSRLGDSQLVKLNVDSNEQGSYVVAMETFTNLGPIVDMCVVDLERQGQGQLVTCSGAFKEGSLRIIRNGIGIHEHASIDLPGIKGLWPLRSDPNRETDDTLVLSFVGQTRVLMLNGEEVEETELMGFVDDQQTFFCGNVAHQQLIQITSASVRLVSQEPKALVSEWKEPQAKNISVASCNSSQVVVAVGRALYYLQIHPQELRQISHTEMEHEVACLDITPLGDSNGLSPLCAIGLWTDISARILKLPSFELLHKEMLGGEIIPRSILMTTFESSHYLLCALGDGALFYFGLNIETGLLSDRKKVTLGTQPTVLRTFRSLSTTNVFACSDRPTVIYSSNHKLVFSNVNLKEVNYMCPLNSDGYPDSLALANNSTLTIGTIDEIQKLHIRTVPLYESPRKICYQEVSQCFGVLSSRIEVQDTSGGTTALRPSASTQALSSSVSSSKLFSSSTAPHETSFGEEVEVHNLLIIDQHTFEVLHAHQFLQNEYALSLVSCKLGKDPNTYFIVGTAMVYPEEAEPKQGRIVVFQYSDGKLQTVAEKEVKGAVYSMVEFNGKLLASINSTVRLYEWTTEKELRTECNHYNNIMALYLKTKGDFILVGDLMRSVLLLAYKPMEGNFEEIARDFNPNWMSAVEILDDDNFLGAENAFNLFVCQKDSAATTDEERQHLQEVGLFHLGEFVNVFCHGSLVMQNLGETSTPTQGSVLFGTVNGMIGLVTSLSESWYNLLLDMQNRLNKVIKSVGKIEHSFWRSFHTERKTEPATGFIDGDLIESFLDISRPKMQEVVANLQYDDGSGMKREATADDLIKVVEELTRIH
Source text: (§1) T cell compositions containing anti-CD19 CAR-expressing T cells were generated from leukapheresis samples from five healthy human adult donors by a process that included immunoaffinity-based selection of T cells by separately selecting CD4+ and CD8+ cells from the samples, resulting in two compositions enriched for CD4+ and CD8+ cells, respectively, per donor. Cells of the enriched CD4+ and CD8+ compositions were separately activated with anti-CD3/anti-CD28 beads and subjected to lentiviral transduction with a vector encoding an anti-CD19 CAR. The anti-CD19 CAR contained an anti-CD19 single-chain variable fragment (scFv) derived from a murine antibody (variable region derived from FMC63), an immunoglobulin-derived spacer, a transmembrane domain derived from CD28, a costimulatory region derived from 4-1BB, and a CD3-zeta intracellular signaling domain. The expression construct in the viral vector further contained sequences encoding a surrogate surface marker for CAR expression, which was separated from the CAR-encoding sequence by a T2A ribosome skip sequence. Transduced populations then were separately incubated in the presence of stimulating reagents for cell expansion. Expanded CD4+ and CD8+ cells were formulated and cryopreserved separately and stored.
(§2) Prior to use, the cryopreserved CD4+ and CD8+ engineered cell compositions were thawed and combined at approximately a 1:1 CD4:CD8 ratio for each donor. Cells of the combined composition were then stimulated at 37° C. with 5% CO2 for 24 hours with 30 µg/mL of a CAR-specific anti-idiotypic antibody (see, e.g., WO2018/023100).
(§3) Following incubation, the stimulated cells were stained with antibodies and analyzed by flow cytometry to assess intracellular levels of Ikaros and Aiolos in CAR+ T cells, as measured by median fluorescence intensity (MFI). MFI values for Ikaros and Aiolos were normalized and calculated as a percentage relative to vehicle control.

[2] = target: T2, Ikaros (Homo sapiens, UniProt Q13422+Q96SW2); assay: Ikaros degradation in stimulated anti-CD19 CAR T cells (flow cytometry MFI); type: cell-based
T2 construct: analyzed by flow cytometry to assess intracellular levels of Ikaros and Aiolos in CAR+ T cells; endogenous in cells; host or cells: primary human CD4+ and CD8+ T cells from healthy donors, lentivirally transduced with an anti-CD19 CAR
T2 sequence (Q13422 whole entry): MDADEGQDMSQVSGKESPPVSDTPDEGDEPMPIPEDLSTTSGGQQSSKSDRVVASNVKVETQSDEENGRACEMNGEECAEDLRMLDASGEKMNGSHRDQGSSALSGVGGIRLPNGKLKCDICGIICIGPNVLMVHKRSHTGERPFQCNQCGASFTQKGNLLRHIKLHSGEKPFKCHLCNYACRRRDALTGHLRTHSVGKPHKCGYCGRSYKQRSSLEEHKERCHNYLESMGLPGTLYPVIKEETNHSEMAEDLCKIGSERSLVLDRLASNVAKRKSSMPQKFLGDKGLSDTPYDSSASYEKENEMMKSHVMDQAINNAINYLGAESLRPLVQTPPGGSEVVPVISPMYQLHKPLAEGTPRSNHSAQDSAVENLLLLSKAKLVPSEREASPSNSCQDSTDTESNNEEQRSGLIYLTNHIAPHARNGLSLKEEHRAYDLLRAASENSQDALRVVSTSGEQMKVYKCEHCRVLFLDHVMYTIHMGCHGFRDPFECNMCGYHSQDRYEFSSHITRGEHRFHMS
T2 sequence (Q96SW2 whole entry): as the sequence (Q96SW2 whole entry) above
T2 sequence (Q16531 whole entry partner): as the sequence (Q16531 whole entry partner) above
Source text: as §1, §2, §3

[3] = test system: RL CD19+ tumor cells; assay: Cytolytic function: co-culture of anti-CD19 CAR T cells with RL CD19+ tumor cells; type: cell-based; settings: E:T 1:1
Description: To do so, CAR T cells were plated on ploy-D-lysine plates. CD19+ tumor cells transduced with IncuCyte® NucLight Red (Essen BioScience Inc.) were then added to the CAR T cells in addition to Compound C or vehicle control. Tumor cell number was measured over multiple days.
Treatment with CAR T cells in combination with either immunomodulatory compound led to lower tumor cell numbers than did CAR T cells alone or the compounds alone.

[4] = target: T2, Ikaros; assay: Ikaros expression in CAR T cells after six days of chronic stimulation (MFI); type: cell-based; settings: higher concentrations (e.g., 0.01 μM and 0.1 μM); compared with Compound 2
Description: To simulate conditions of chronic stimulation, anti-CD19 CAR-expressing T cells, produced as described in Example 1, were incubated with plate-bound CAR-specific anti-idiotypic antibody (see, e.g., WO2018/023100) and incubated at 37° C. for a period of six days. […] For instance, CAR T cells that were re-challenged with CD19+ tumor cells following the six-day stimulation had reduced IFNγ and IL-2 cytokine production (FIG. 3A) and reduced cytolytic function (FIG. 3B) compared to freshly thawed CAR T cells not subjected to the six-day stimulation.
The ability of Compound C to block or reduce this CAR T cell hypofunctionality following chronic stimulation was assessed. To do so, engineered CAR T cells were concurrently treated with Compound C, Compound 2, or a vehicle control during the six-day stimulation. Stimulated CAR T cells were then harvested, washed twice in media, and re-challenged with Granta-519 lymphoma tumor spheroids (that had been transduced with IncuCyte NucLight Red) in the absence of Compound C, after which cytolytic activity was assessed by loss of red fluorescence over time and averaged measurement of tumor spheroid size at various times following co-culture with CAR-T cells. Cytokine production, Ikaros expression, and gene expression of the CAR T Cells also were assessed. […]

[5] = test system: CAR-expressing CD8 T cells; assay: T cell memory markers CD27/CCR7 after chronic stimulation (flow cytometry); type: cell-based, human
Description: Similar results are shown in FIG. 7B for a separate experiment in which CAR T cells were chronically stimulated for 7 days in the presence or absence of Compound C. In this experiment, Compound C was present at (i) 50 nM for one day and 1 nM for the remaining six days of stimulation, (ii) 25 nM for one day and 0.5 nM for the remaining six days of stimulation, (iii) 10 nM for all seven days of stimulation, or (iv) 1 nM for all seven days of stimulation. Stimulated CAR T cells were then re-challenged with Raji lymphoma tumor spheroids in the absence of Compound C, after which cytolytic activity was assessed over a four-day period. […] The CAR T cells stimulated for seven days in the presence or absence of Compound C were also analyzed for phenotypic T cell memory markers using flow cytometry following chronic stimulation. […] CD27/CCR7 expression, which is a marker for less differentiated, naïve-like T cells, was highest in CAR-expressing CD8 T cells stimulated in the presence of Compound C at 50 nM for one day and 1 nM for the remaining six days of stimulation (* P<0.05).

[6] = approximately 10^-1 to 10^4 nM, 24 hours
[7] = at all compound concentration levels tested

Compound: O=C1CC[C@H](N2C(=O)c3cccc(NCc4ccc(CN5CC(N6CCOCC6)C5)cc4F)c3C2=O)C(=O)N1 [Compound C, (S)-2-(2,6-dioxopiperidin-3-yl)-4-((2-fluoro-4-((3-morpholinoazetidin-1-yl)methyl)benzyl)amino)isoindoline-1,3-dione]
- DC50 ([1]; anti-CD19 CAR T cells, 24 hours stimulation with anti-idiotypic antibody, concentration reducing MFI to 50%, average of five donors, read-out: Average EC50 Values (95% Confidence Interval), Aiolos): 0.25 nM
- intracellular Aiolos expression (MFI relative to vehicle control) [1, 6]: Concentration-dependent decreases
- Aiolos expression compared with Compound 2 or Compound 1 [1, 7]: lower
- DC50 ([2]; anti-CD19 CAR T cells, 24 hours stimulation with anti-idiotypic antibody, concentration reducing MFI to 50%, average of five donors, read-out: Average EC50 Values (95% Confidence Interval), Ikaros): 0.31 nM
- intracellular Ikaros expression (MFI relative to vehicle control) [2, 6]: Concentration-dependent decreases
- Ikaros expression compared with Compound 2 or Compound 1 [2, 7]: lower
- RL tumor cell number vs CAR T cells alone or compound alone ([3]; compound at 0.001 μM with anti-CD19 CAR T cells): lower
- RL tumor cell number vs CAR T cells alone or compound alone ([3]; compound at 0.01 μM with anti-CD19 CAR T cells): lower
- RL tumor cell number vs CAR T cells alone or compound alone ([3]; compound at 0.1 μM with anti-CD19 CAR T cells): lower
- Ikaros expression (MFI) after six days of chronic stimulation [4]: lowest
- CD27/CCR7 expression ([5]; 50 nM for one day and 1 nM for the remaining six days of stimulation, P<0.05): highest
- percentage of CD27+/CCR7+ cells vs stimulation in the absence of compound ([5]; seven days of chronic stimulation in the presence of compound): higher percentages of CD27+/CCR7+ cells
